From US20150133397A1, “METHOD OF REDUCING FASTING INSULIN LEVELS IN MTHFR GENE DEFICIENT SUBJECTS WITH NORMAL TO SLIGHTLY ELEVATED HEMOGLOBIN A1C” (priority 2013, published 2015) come the findings set out here.

Molecules are shown by their SMILES. Like-named read-outs stand apart in the source and are kept apart here.

The conditions of assay [1]: MTHFR677 tt, retested 6 months later.
Source text: (§1) The test subject was given a fasting insulin test.
The conditions of assay [2]: MTHFR677 tt, retested 6 months later. This is another data set of the same source.
Source text: The HbA1C test is a common blood test used to diagnose type 1 and type 2 diabetes and then to gauge how well the subject is managing diabetes or the subjects risk of becoming diabetic. The A1C test result reflects the subjects average blood sugar level for the past two to three months. Specifically, the A1C test measures what percentage of the subject's hemoglobin is coated with sugar (glycated). […] According to the American Diabetes Association guidelines a HbA1C of between 4 and 5.6% falls within normal parameters, HbA1C between 5.7 and 6.4% are considered slightly elevated and indicate a prediabetic state as where HbA1C of greater than 6.5% is considered diabetic.
as §1

For the molecule `CN1c2c([nH]c(N)nc2=O)NC[C@@H]1CNc1ccc(C(=O)N[C@@H](CCC(=O)O)C(=O)O)cc1` [L-methylfolate], the fasting insulin level in assay [1] (Example 1: person, 3 mgs L-methylfolate with 2 mgs methyl B12 once daily, before treatment 40 μU/ml) is reported as 9 μU/ml; in assay [1] (Example 2: person, 15 mgs L-methylfolate with 2 mgs methyl B12 once daily, before treatment 100 μU/ml), 11 μU/ml. In addition, the HbA1C stood at 4.9% in assay [2] (Example 1: person, 3 mgs L-methylfolate with 2 mgs methyl B12 once daily, before treatment 4.9%) and 5.3% in assay [2] (Example 2: person, 15 mgs L-methylfolate with 2 mgs methyl B12 once daily, before treatment 5.3%).
